Measured values taken from US20210077585A1, “METHOD OF TREATMENT OF IMMUNE CHECKPOINT INHIBITOR-RELATED IMMUNE ADVERSE EFFECTS” (priority 2019, published 2021).
Entries after “also recorded” stand apart in the source; their conditions may differ. No end group written: not given here.

Tests used:
[1] = system: murine dextran sodium sulfate (DSS)-induced colitis; test: Dextran sodium sulfate (DSS)-induced colitis in mice; type: in vivo, C57BL6 mice
Experimental: (§1) Inbred C57BL6 mice, 8 to 12 weeks old, were purchased from Charles River Breeding Laboratories (Calco, Italy). Experiments were performed following protocols approved by the institutional animal committee and in accordance with European Economic Community Council Directive as well as institutional animal care and use guidelines.
DSS is a water soluble, negatively charged sulfated polysaccharide with a highly variable molecular weight ranging from 5 to 1400 kDa. Murine colitis results from administration of 40-50 kDa DSS added to drinking water. […] We have added 40-50 kDa DSS to sterilized drinking water at 3% for a period of 6 days to induce acute colitis. Concomitantly, Tα1 at 200 μg/kg was intraperitoneally injected daily, as illustrated in FIG. 1A. Control mice receive vehicle alone. Surviving mice were sacrificed at 10 days after the initiation of colitis.
(§2) In both models, animals were monitored daily for appearance of diarrhea, fecal blood, loss of body weight and survival. At the end of the experiment, surviving mice were sacrificed, the colon was excised, and evaluated for macroscopic damage and local immune parameters
(§3) Freshly isolated colons were fixed in formalin and embedded in paraffin. H&E staining was performed using a standard protocol. For the quantitative histological analysis, five criteria were used to grade each section of the intestine: (i) severity of inflammation, (ii) percent of area affected by inflammation, (iii) degree of hyperplasia, (iv) depth of the lesion, and (v) ulceration.
The levels of cytokines in the colon homogenates were determined by specific ELISA (R&D Systems).
(§4) Student's t-test, one- or two-way ANOVA with Bonferroni post-hoc test were used to determine the statistical significance. Significance was defined as p<0.05. Data are pooled results (mean±SEM) or representative images from three experiments.

[2] = system: murine model of checkpoint inhibitor-mediated colitis (CIC); test: Checkpoint inhibitor-mediated colitis (CIC) model (DSS + anti-CTLA-4 mAb) in mice; type: in vivo, C57BL6 mice
Experimental: as §1
The mice received 3% DSS in their drinking water for 8 days and 100 μg of anti-CTLA-4 mAb (BioXcell, USA) or isotype control antibody intraperitoneally at the beginning of the experiment (day 0) and 4 days after (day +4). Surviving mice were sacrificed at 16 days. Tα1 at 200 μg/kg was intraperitoneally injected every other day, as illustrated in FIG. 2A.
as §2, §3, §4

B16 melanoma = test: Tumor challenge with B16 melanoma under anti-CTLA-4 mAb; type: in vivo, mice; details: 100 μg anti-CTLA-4 mAb days 0, 6, 10 with Tα1 200 μg/kg i.p.; FIG. 2E
Experimental: B16-F0 (ATCC® CRL-6322™ were cultured in RPMI Medium1640 (Gibco, Life Technologies, USA) containing 10% FBS (Gibco, USA), 100 U/mL penicillin, and 100 μg/mL streptomycin, at 37° C. in a humidified atmosphere of 5% CO2. 2×10^5 B16 tumor cells were subcutaneously injected into the right flanks of the mice. The mice were injected intraperitoneally with 100 μg of anti-CTLA-4 mAb, at 0, 6, and 10 days post-tumor implantation and concomitantly with Tα1 at 200 μg/kg intraperitoneally. Tumor size was measured with a caliper and calculated as described (Wang et al., 2019).

[3] = steroid and infliximab refractory cases; recent reports; cited from earlier work
[4] = ELISA of colon homogenates, FIG. 1F

| Substance | loss of body weight ([1]; 3% DSS 6 days, Tα1 200 μg/kg intraperitoneally daily, FIG. 1B) | production of IL-10 in the colon ([1]; ELISA of colon homogenates, FIG. 1E) | production of pro-inflammatory cytokine IL-1S [1, 4] | production of pro-inflammatory cytokine IL-17A [1, 4] | expression of IDO1 in the colon ([1]; RT-PCR, at sacrifice, FIG. 1E) | survival of mice ([1]; Tα1 200 μg/kg i.p. daily, FIG. 1C) | colon histopathology ([1]; Tα1 200 μg/kg i.p. daily, at sacrifice, FIG. 1D) | loss of body weight ([2]; CIC model (3% DSS 8 days + anti-CTLA-4 mAb), Tα1 200 μg/kg i.p. every other day, FIG. 2B) | survival of mice ([2]; CIC model, Tα1 200 μg/kg i.p. every other day, FIG. 2C) | architecture structure of the colon in surviving mice ([2]; CIC model, compared to untreated animals, FIG. 2D) | mice surviving at 16 days post initiation of colitis ([2]; CIC model, time at which untreated mice have all died, FIG. 2C) | growth kinetics of B16 melanoma tumors / antitumoral efficacy afforded by anti-CTLA-4 mAb (B16 melanoma) | efficacy in refractory CIC [3] |
| --- | --- | --- | --- | --- | --- | --- | --- | --- | --- | --- | --- | --- | --- |
| Thymosin alpha 1 (Ac-SDAAVDTSSEITTKDLKEKKEVVEEAEN; UniProt P06454 2-29, looked up) [Tα1, naturally-occurring polypeptide of 28 amino acid; from CRIBI Biotechnology, supplied as purified sterile, lyophilized, acetylated polypeptide] | prevented the loss of body weight | induced | decreased the production | decreased the production | induced the expression of IDO1 | increased survival of mice | ameliorated colon histopathology | not significantly prevented | significantly increased the survival of mice | recovery of the normal architecture structure of the colon | majority of mice surviving | does not affect the antitumoral efficacy; also recorded: did not affect the growth kinetics of the tumors | – |
| Vedolizumab: therapy reported as more gut specific and efficacious in steroid and infliximab refractory checkpoint inhibitor colitis | – | – | – | – | – | – | – | – | – | – | – | – | efficacious in steroid and infliximab refractory cases |
